Like-named read-outs stand apart in the source and are kept apart here.
Legend:
Assay type in all cases: in vivo
[1] = test system: Echinochloa crus-galli (ECHCG); assay: Post-emergence herbicidal action against ECHCG; details: dosage 80 g/ha
In short: (§1)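 Doses of 320 g/ha or lower, suffixes a, b and c marking different dosages, were applied post-emergence at the one-leaf stage in 600 l/ha water with 0.5% additive. Damage was assessed visually after about 3 weeks in the greenhouse.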

[2] = test system: Polygonum convolvulus (POLCO); assay: Pre-emergence herbicidal action against POLCO
In short: (§2)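 Dosages of 320 g/ha or less; pre-emergence; WP or EC in aqueous spray, 0.5% additive, 600 l/ha; greenhouse; visual % effect after ~3 wk relative to control pots.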

[3] = test system: Amaranthus retroflexus (AMARE); assay: Pre-emergence herbicidal action against AMARE; details: visual scoring after about 3 weeks vs untreated controls
In short: as §2

[4] = test system: Alopecurus myosuroides (ALOMY); assay: Post-emergence herbicidal action against ALOMY; details: 80 g/ha, visual rating about 3 weeks after treatment vs untreated controls (100% = plants have died, 0% = like control plants)
In short: as §1

Lolium rigidum (LOLRI) = assay: Pre-emergence herbicidal action against LOLRI
In short: as §2

[5] = test system: Matricaria inodora (MATIN); assay: Post-emergence herbicidal action against MATIN; details: dosage 80 g/ha
In short: as §1

[6] = test system: Verconica persica (VERPE); assay: Pre-emergence herbicidal action against VERPE
In short: as §2

[7] = test system: Digitaria sanguinalis (DIGSA); assay: Post-emergence herbicidal action against DIGSA; details: 80 g/ha, visual rating about 3 weeks after treatment
In short: as §1

Avena fatua (AVEFA) [8] = assay: Post-emergence herbicidal action against AVEFA; details: 80 g/ha, visual rating about 3 weeks after treatment
In short: as §1

Viola tricolor (VIOTR) = assay: Pre-emergence herbicidal action against VIOTR
In short: as §2

[9] = test system: Digitaria sanguinalis (DIGSA); assay: Pre-emergence herbicidal action against DIGSA
Description: Seeds of monocotyledonous and dicotyledonous weed plants and crop plants are placed in plastic or organic planting pots and covered with soil. The compounds of the invention, formulated in the form of wettable powders (WP) or as emulsion concentrates (EC), are then applied to the surface of the covering soil as aqueous suspension or emulsion with addition of 0.5% additive at a water application rate equivalent to 600 l/ha. After the treatment, the pots are placed in a greenhouse and kept under good growth conditions for the trial plants. After about 3 weeks, the effect of the preparations is scored visually in comparison with untreated controls as percentages. For example, 100% activity=the plants have died, 0% activity=like control plants.
Tables A1 to A13 below show the effects of selected compounds of the general formula (I) on various harmful plants and at an application rate corresponding to 320 g/ha or lower, which were obtained by the experimental procedure mentioned above. The appendices “a”, “b” and “c” give differentiation by dosage used with otherwise the same harmful plants tested.

[10] = test system: Verconica persica (VERPE); assay: Post-emergence herbicidal action against VERPE; details: dosage 80 g/ha
In short: as §1

Zea mays (ZEAMX) = test system: Zea mays (ZEAMX)
In short: (§3)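 Percent effect on the crop was judged by eye against untreated controls, where 0% means like control and 100% means dead plants. Plants had been sprayed post-emergence at the one-leaf stage and then kept under optimum greenhouse conditions for about 3 weeks.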

Oryza sativa (ORYSA) = details: crop plant compatibility
In short: as §3

Setaria viridis (SETVI) [11] = assay: Post-emergence herbicidal action against SETVI; details: dosage 80 g/ha
In short: as §1

[12] = test system: Alopecurus myosuroides (ALOMY); assay: Pre-emergence herbicidal action against ALOMY; details: scored visually after about 3 weeks, 100% = plants have died
In short: as §2

[13] = test system: Echinochloa crus-galli (ECHCG); assay: Pre-emergence herbicidal action against ECHCG; details: dosage 320 g/ha
In short: as §2

Setaria viridis (SETVI) [14] = assay: Pre-emergence herbicidal action against SETVI
In short: as §2

Avena fatua (AVEFA) [15] = assay: Pre-emergence herbicidal action against AVEFA; details: 320 g/ha, visual scoring after about 3 weeks vs untreated controls
In short: as §2

[16] = test system: Matricaria inodora (MATIN); assay: Pre-emergence herbicidal action against MATIN; details: dosage 320 g/ha
In short: as §2

[17] = test system: Abutilon theophrasti (ABUTH); assay: Post-emergence herbicidal action against ABUTH; details: 80 g/ha, visual rating about 3 weeks after treatment vs untreated controls (100% = plants have died, 0% = like control plants)
In short: as §1

[18] = test system: Amaranthus retroflexus (AMARE); assay: Post-emergence herbicidal action against AMARE; details: 80 g/ha, visual rating about 3 weeks after treatment vs untreated controls (100% = plants have died, 0% = like control plants)
In short: as §1

[19] = test system: Polygonum convolvulus (POLCO); assay: Post-emergence herbicidal action against POLCO; details: dosage 80 g/ha
In short: as §1

[20] = test system: Pharbitis purpurea (PHBPU); assay: Post-emergence herbicidal action against PHBPU; details: dosage 80 g/ha
In short: as §1

[21] = test system: Pharbitis purpurea (PHBPU); assay: Pre-emergence herbicidal action against PHBPU; details: dosage 320 g/ha
In short: as §2

[22] = 80 g/ha, visual scoring after about 3 weeks vs untreated controls

SMILES | Post-emergence action against ECHCG in % [1] | Pre-emergence action against POLCO in % ([2]; dosage 320 g/ha) | Pre-emergence action against AMARE in % ([3]; 80 g/ha) | Pre-emergence action against AMARE in % ([3]; 320 g/ha) | Post-emergence action against ALOMY in % [4] | Pre-emergence action against LOLRI in % (Lolium rigidum (LOLRI); dosage 320 g/ha) | Pre-emergence action against VERPE in % ([6]; dosage 320 g/ha) | Post-emergence action against DIGSA in % [7] | Pre-emergence action against VIOTR in % (Viola tricolor (VIOTR); 320 g/ha, Viola tricolor) | Pre-emergence action against VIOTR in % (Viola tricolor (VIOTR); dosage 80 g/ha) | Pre-emergence action against DIGSA in % [9, 22] | Pre-emergence action against DIGSA in % ([9]; dosage 320 g/ha) | Post-emergence action against VERPE in % [10] | Post-emergence action against SETVI in % (Setaria viridis (SETVI) [11]) | Pre-emergence action against ALOMY ([12]; 80 g/ha) | Pre-emergence action against ALOMY ([12]; 320 g/ha) | Pre-emergence action against ECHCG in % [13] | Pre-emergence action against SETVI in % (Setaria viridis (SETVI) [14]; dosage 80 g/ha) | Pre-emergence action against SETVI in % (Setaria viridis (SETVI) [14]; dosage 320 g/ha) | Pre-emergence action against AVEFA in % (Avena fatua (AVEFA) [15]) | also measured
COCCOC(=O)COc1nn(-c2ncccc2F)c(-c2ccc(F)nc2)c1Br [Example I-29] | 80% | 90% | 90% | 100% | 100% | 100% | 90% | 90% | 100% | 90% | 100% | 100% | 80% | 80% | 90% | 100% | 100% | 90% | 100% | 90% | Post-emergence action against MATIN in % [5]: 90%; Post-emergence action against AVEFA in % (Avena fatua (AVEFA) [8]): 80%; Post-emergence action against ZEAMX in % (crop plant compatibility) (Zea mays (ZEAMX); 20 g/ha, ZEAMX, effect in comparison to untreated controls): 10%; Post-emergence action against ZEAMX in % (Zea mays (ZEAMX); crop plant compatibility, 80 g/ha, effect vs untreated controls): 20%; Post-emergence action against ORYSA in % (Oryza sativa (ORYSA); 20 g/ha, effect vs untreated controls): 10%; Post-emergence action against ORYSA in % (Oryza sativa (ORYSA); 80 g/ha, effect in comparison to untreated controls): 20%; Pre-emergence action against MATIN in % [16]: 100%
COCCOCCOC(=O)COc1nn(-c2ncccc2F)c(-c2ccc(F)nc2)c1Br [Example I-37] | 80% | 90% | 100% | 100% | 90% | 100% | 100% | 90% | 100% | 100% | 100% | 100% | 80% | 80% | 100% | 100% | 100% | 100% | 100% | 90% | Pre-emergence action against POLCO in % ([2]; dosage 80 g/ha): 80%; Post-emergence action against ABUTH in % [17]: 80%; Pre-emergence action against LOLRI in % (Lolium rigidum (LOLRI); dosage 80 g/ha): 80%; Pre-emergence action against VERPE in % ([6]; dosage 80 g/ha): 80%; Post-emergence action against AMARE in % [18]: 90%; Post-emergence action against POLCO in % [19]: 80%; Post-emergence action against PHBPU in % [20]: 80%; Pre-emergence action against PHBPU in % [21]: 90%; Pre-emergence action against MATIN in % [16]: 100%
